Assay: xn = mol fraction of the nth substance listed
Conditions: 101 kPa

O=C([O-])CC(O)(CC(=O)[O-])C(=O)[O-].[Li+].[Li+].[Li+] + CC[n+]1ccn(C)c1.O=S(=O)([O-])O + O
viscosity [mPa·s]
Conditions	293.15 K	298.15 K	303.15 K	308.15 K	313.15 K
x1 = 0.0003639, x2 = 0	1.022	0.927	0.835	0.757	0.691
x1 = 0.0007293, x2 = 0	1.043	0.946	0.854	0.776	0.712
x1 = 0.0008074, x2 = 0.0007287	1.082	1.003	0.885	0.81	0.751
x1 = 0.0008123, x2 = 0.000664	1.069	0.99	0.883	0.811	0.734
x1 = 0.0008236, x2 = 0.0009246	1.112	1.003	0.906	0.825	0.745
x1 = 0.0009579, x2 = 0.0007286	1.09	1.01	0.892	0.817	0.758
x1 = 0.000959, x2 = 0.0006639	1.077	0.996	0.89	0.818	0.741
x1 = 0.001091, x2 = 0	1.063	0.961	0.869	0.793	0.729
x1 = 0.001134, x2 = 0.0009243	1.13	1.017	0.92	0.84	0.761
x1 = 0.001339, x2 = 0.0009241	1.142	1.025	0.929	0.849	0.771
x1 = 0.001445, x2 = 0	1.083	0.974	0.883	0.807	0.745
x1 = 0.001498, x2 = 0.0007282	1.121	1.032	0.914	0.841	0.784
x1 = 0.001582, x2 = 0.0006634	1.113	1.021	0.915	0.845	0.769
x1 = 0.001715, x2 = 0.000728	1.134	1.04	0.923	0.85	0.794
x1 = 0.001743, x2 = 0.0006633	1.122	1.026	0.922	0.852	0.776
x1 = 0.001787, x2 = 0.0009237	1.169	1.042	0.947	0.869	0.791
x1 = 0.001793, x2 = 0	1.102	0.986	0.896	0.821	0.759
x1 = 0.002226, x2 = 0	1.126	1	0.911	0.837	0.777
x1 = 0.002241, x2 = 0.000663	1.15	1.044	0.94	0.871	0.797
x1 = 0.002241, x2 = 0.0007276	1.164	1.059	0.942	0.871	0.817
x1 = 0.002293, x2 = 0.0009233	1.198	1.061	0.967	0.89	0.814
x1 = 0.002592, x2 = 0.0006628	1.17	1.055	0.952	0.884	0.811
x1 = 0.002633, x2 = 0.0007274	1.186	1.073	0.956	0.886	0.833
x1 = 0.002689, x2 = 0.0009229	1.221	1.074	0.981	0.906	0.831
x1 = 0.002748, x2 = 0	1.155	1.016	0.928	0.855	0.797
